Columns and labels:
Assay type in all cases: functional
Rattus norvegicus [1] = experiment: % inhibition against anaphylactic response in rat at dose 50 mg/kg administered orally after 120 min; conditions: 2 h, route oral
Rattus norvegicus [2] = experiment: % inhibition against anaphylactic response in rat at dose 50 mg/kg administered orally after 60 min; conditions: 1 h, route oral
Rattus norvegicus [3] = experiment: % inhibition against anaphylactic response in rat at dose 10 mg/kg administered orally after 60 min; conditions: 1 h, route oral

| SMILES | inhibition in vivo at 50 mg/kg (Rattus norvegicus [1]) [%] | inhibition in vivo at 50 mg/kg (Rattus norvegicus [2]) [%] | inhibition in vivo at 10 mg/kg (Rattus norvegicus [3]) [%] |
| --- | --- | --- | --- |
| COc1cc2c(cc1OC)C(COCCN1CCN(c3ccc(F)cc3)CC1)OCCC2 (stereo unspecified) | 0 | 52 |  |
| COc1cc2c(cc1OC)C(COCCN1CCN(c3ccccc3OC)CC1)OCCC2 (stereo unspecified) | 20 | 100 |  |
| COc1cc2c(cc1OC)C(COCCN1CCN(c3ccccn3)CC1)OCCC2 (stereo unspecified) | 35 | 94 |  |
| COc1cc2c(cc1OC)C(COCCN1CCN(C)CC1)OCCC2 (stereo unspecified) | 0 | 0 |  |
| COc1cc2c(cc1OC)C(COCCNCCO)OCCC2 (stereo unspecified) | 0 | 0 |  |
| O=C(O)c1cc(=O)c2c(OCC(O)COc3cccc4oc(C(=O)O)cc(=O)c34)cccc2o1 [CROMOLYN SODIUM] |  |  | 100 |

Source: ChEMBL document CHEMBL1121512, “1-[Ethoxyamino)methyl]-1,3,4,5-tetrahydro-7,8-dimethoxy-2-benzoxepins: a new class of antianaphylactic agents” (1980)
